Assays:
Fbn1^C1039G/+ mice [1] = assay: DON by osmotic minipumps in Marfan mouse model: aortic ultrasound, blood pressure, histology, immunoblot, qPCR, RNA-seq; type: in vivo
Description: (§1) Marfan mouse model which harbor a Fbn1^C1039G/+ allele (JAX stock #012885). Wild-type littermates were used as controls for Marfan mice. DON dissolved in saline, (Sigma-Aldrich), at 5 ng* kg^-1 min^-1 and ISRIB (MedChemExpress) at 10mg* kg^-1 min^-1 were infused using subcutaneous osmotic minipumps (Model 2004, Alzet Corp). NR (Novalix) was administered intraperitoneally at 1000 mg/kg in saline every other day. Mice were housed at the pathogen-free animal facility of the CNIC and CBMSO following the animal care standards of the institution. Animal procedures were approved by the CNIC and CBMSO-UAM Ethics Committee and the Madrid regional authorities and conformed with EU Directive 2010/63EU and Recommendation 2007/526/EC regarding the protection of animals used for experimental and other scientific purposes, enforced in Spanish law under Real Decreto 1201/2005.
(§2) Arterial blood pressure (BP) was measured by the mouse-tail cuff method using the automated BP-2000 Blood Pressure Analysis System (Visitech Systems, Apex, NC, USA). Mice were trained for BP measurements every day for five consecutive days. After training period, BP was measured one day before treatment to determine the baseline BP values in each mouse cohort. BP measurements were recorded in mice located in a tail-cuff restrainer over a warmed surface (37 °C). Fifteen consecutive systolic and diastolic BP measurements were made, and the last 10 readings per mouse were recorded and averaged. For in vivo ultrasound images, the aortic diameter was monitored in isoflurane-anesthetized mice (2% isoflurane) by highfrequency ultrasound with a VEVO 2100 echography device (VisualSonics, Toronto, Canada) at 30-micron resolution. Maximal internal aortic diameters were measured at diastole using VEVO 2100 software, version 1.5.0.
Aortas were extracted after perfusion with 5 ml saline solution, and the adventitia layer was discarded. Liquid nitrogen frozen tissue was homogenized using a cold-mortar and an automatic bead homogenizer (MagNA Lyzer, Roche). Total RNA was isolated with Trizol (Life Technologies). Total RNA (1 µg) was first digested with DNAse and reverse-transcribed with Maxima First Strand cDNA Synthesis Kit (ThermoFisher). For analysis of mtDNA levels, total DNA from cells and tissues was extracted with the SurePrep kit (Fisher Scientific) or Trizol respectively, according to the manufacture's guidelines. qPCR reactions were performed in triplicate with SYBR master mix (Promega), according to the manufacturer's guidelines. To examine probe specificity, we conducted a post-amplification melting-curve analysis. For each reaction, only one melting-temperature (Tm) peak was produced. The amount of target mRNA in samples was estimated by the 2-CT relative quantification method, using B2M, YWHAZ and PP1A for normalization. Fold ratios were calculated relative to mRNA expression levels from controls.
Aortas were extracted after perfusion of cold saline solution and the adventitia layer was discarded. Frozen tissue was homogenized, and total RNA was isolated with Trizol ([…]). RNA from Libraries were prepared according to the instructions of the Kit "NEBNext Ultra Directional RNA Library Prep kit for Illumina" (New England Biolabs), following the protocol "Poly(A) mRNA Magnetic Isolation Module". The input yield of total RNA to start the protocol was >300 ng quantified by an Agilent 2100 Bioanalyzer using a RNA 6000 nano LabChip kit. The obtained libraries were validated and quantified by an Agilent 2100 Bioanalyzer using a DNA7500 LabChip kit and an equimolecular pool of libraries was titrated by quantitative PCR using the "Kapa-SYBR FAST qPCR kit forLightCycler480" (Kapa BioSystems) and a reference standard for quantification. After processing on the Illumina HiSeq 2500 instrument, FastQ files were generated containing nucleotide data and quality scores for each position. RNA-seq reads were mapped to the Mus musculus reference genome, GRCm38.p6, using Hisat2 v2.1.0 software. […]

shFbn1-VSMCs [2] = assay: DON incubation of Fbn1-silenced primary VSMCs: immunoblot, flow cytometry, qPCR; type: cell-based, murine
Description: (§3) Isolation and culture of primary mouse VSMCs were previously described. Tissue was digested with a solution of collagenase and elastase (Worthington Biochem) until a single-cell suspension was obtained. All experiments with primary VSMCs were performed during passages 2-7. Lentiviral transduction was performed in VSMCs over 5 h at a multiplicity of infection = 3. The medium was then replaced with fresh DMEM supplemented with 10% FBS and cells were cultured for five more days, treated with NR for five more days and serum-starved for 16h. The HEK-293T (CRL-1573) and Jurkat (Clone E6-1, TIB-152) cell lines, required for high-titer lentivirus production and lentivirus titration respectively, were purchased from ATCC. The experiments were performed during passages 5-10. All cells tested negative for Mycoplasma.
The GFPT2 and GFP coding sequence was obtained from Origene. Lentiviruses expressing shRNA targeting murine Fbnl, and control shRNA were purchased from Sigma-Aldrich. Pseudo-typed lentiviruses were produced by transient calcium phosphate transfection of HEK-293T cells and concentrated from culture supernatant by ultracentrifugation (2 hours at 128,000xg; Ultraclear Tubes; SW28 rotor and Optima L-100 XP Ultracentrifuge; Beckman). Viruses were suspended in cold sterile PBS and titrated by transduction of Jurkat cells for 48h. Transduction efficiency (GFP-expressing cells and Puromycin resistant-cells) and cell death (propidium iodide staining) were quantified by flow cytometry.
Aortas were extracted after perfusion with 5 ml saline solution, and the adventitia layer was discarded. Liquid nitrogen frozen tissue was homogenized using a cold-mortar and an automatic bead homogenizer (MagNA Lyzer, Roche). Total RNA was isolated with Trizol (Life Technologies). […] The amount of target mRNA in samples was estimated by the 2-CT relative quantification method, using B2M, YWHAZ and PP1A for normalization. Fold ratios were calculated relative to mRNA expression levels from controls. […]

Fbn1^+/+ mice = assay: Glucosamine in drinking water to fuel HBP, wild-type mice: aortic ultrasound, tail-cuff blood pressure, aortic histology; type: in vivo, mouse
Description: as §1, §2
After euthanization by CO2 inhalation, mice were perfused with saline. […] Elastic lamina breaks, defined as interruptions in the elastic fibers, were counted in the entire medial layer of three consecutive cross-sections per mouse, using 4-16 mice per experiment, and the mean number of breaks was calculated. […]

Fbn1^C1039G/+ mice [3] = assay: Glucosamine in drinking water to fuel HBP, Marfan mouse model: aortic ultrasound, aortic histology; type: in vivo
Description: (§4) Marfan mouse model which harbor a Fbn1^C1039G/+ allele (JAX stock #012885). Wild-type littermates were used as controls for Marfan mice. DON dissolved in saline, (Sigma-Aldrich), at 5 ng* kg^-1 min^-1 and ISRIB (MedChemExpress) at 10mg* kg^-1 min^-1 were infused using subcutaneous osmotic minipumps (Model 2004, Alzet Corp). NR (Novalix) was administered intraperitoneally at 1000 mg/kg in saline every other day. Mice were housed at the pathogen-free animal facility of the CNIC and CBMSO following the animal care standards of the institution. […]
as §2, with “Mice were trained for BP measurements every day for five consecutive days.” left out, “1.5.0. […]” for “1.5.0.”

shFbn1-VSMCs [4] = assay: ISRIB incubation of Fbn1-silenced primary VSMCs: qPCR; type: cell-based, murine; conditions: ISRIB incubation for 48h
Description: as §3, with “The HEK-293T (CRL-1573) and Jurkat (Clone E6-1, TIB-152) cell lines, required for high-titer lentivirus production and lentivirus titration respectively, were purchased from ATCC. The experiments were performed during passages 5-10. All cells tested negative for Mycoplasma.” left out
The GFPT2 and GFP coding sequence was obtained from Origene. […] Transduction efficiency (GFP-expressing cells and Puromycin resistant-cells) and cell death (propidium iodide staining) were quantified by flow cytometry.
Aortas were extracted after perfusion with 5 ml saline solution, and the adventitia layer was discarded. […] The amount of target mRNA in samples was estimated by the 2-CT relative quantification method, using B2M, YWHAZ and PP1A for normalization. Fold ratios were calculated relative to mRNA expression levels from controls.
ISR is a decisive cell response pathway that controls translation and bases a protective response and drive a transcriptional program to maintain and to contribute to organismal fitness. […] First, the inventors evaluated the ISRIB (an ISR-inhibitor) in MFS in vitro. […]

Fbn1^C1039G/+ mice [5] = assay: ISRIB by osmotic minipumps in Marfan mouse model: aortic ultrasound, blood pressure; type: in vivo; conditions: 28 days, to normal levels
Description: as §4
as §2, with “Mice were trained for BP measurements every day for five consecutive days.” left out, “1.5.0. […]” for “1.5.0.”

[6] = 24-weeks Fbn1^C1039G/+ mice, DON by osmotic minipumps, after 7 days of treatment
[7] = RNA-sequencing on aortas, same cohort as Fig. 3D

## [N-]=[N+]=CC(=O)CC[C@H](N)C(=O)O [DON, 6-diazo-5-oxo-L-norleucine]
Fbn1^C1039G/+ mice [1]; [6]
  Aortic dilation: completely normalized
  blood pressure: completely normalized
Fbn1^C1039G/+ mice [1]; DON treatment for 28 days
  O-GlcNac levels and WGA staining in aortic tissue: reduces
Fbn1^C1039G/+ mice [1]; MFS-mice, same cohort as Fig. 3D
  ISR (p-PERK, p-eIF2α, ATF4 staining and protein levels; Atf4, Atf6, Tgfb2 mRNA) in aortas: inhibited
Fbn1^C1039G/+ mice [1]; [7]
  expression levels of genes related to ER-stress and ISR such as Atf4, Chop, Xbpl, Hsp90b1 and Atf4-dependent genes: decreased
  expression of conventional MFS-affected genes (TGFβ pathway and ECM-related proteins such as Tgfb3, Cnn2, Serpine1, Thbs1, Pdgfa, Acan, Vcan Sdc4): decreased
Fbn1^C1039G/+ mice [1]; after 28 days of DON-treatment
  histologic features of aortic degeneration in MFS, such as medial thickening, elastic fiber fragmentation, GAG and PG deposition: restored
Fbn1^C1039G/+ mice [1]; ingenuity analysis of aortic RNA-seq, DON treated mice, p-value 2,5710^-11
  TGFB upstream regulator, activation Z-score: -9,913
shFbn1-VSMCs [2]; ShFbn1-VSMCs, DON for 48h
  IRS signaling through Atf4, Atf6 protein and mRNA expression: decreased
shFbn1-VSMCs [2]; shFbn1-VSMCs, DON 10nM, 48h, immunoblot and flow cytometry
  O-GlcNac: efficiently reduced
shFbn1-VSMCs [2]; shFbn1-VSMCs, DON incubation
  mRNA levels of classical MFS genes such as Tgb1, Fgf2 growth factors, osteopontin (spp1) and colagen1 (Col1a1): decreased

## N[C@H]1C(O)O[C@H](CO)[C@@H](O)[C@@H]1O (stereo partly shown) [Glucosamine]
Fbn1^+/+ mice; elastin fiber fragmentation and Alcian blue staining after 28 days of treatment
  histological features of CMD: reproduced
Fbn1^+/+ mice; glucosamine in drinking water (5%), 28 days, effect after 7 days of treatment
  aortic diameter: significantly increased
Fbn1^+/+ mice; glucosamine in drinking water (5%), after 7 days of treatment
  systolic blood pressure (BP): decreased
Fbn1^C1039G/+ mice [3]; after 28 days of treatment
  aortic architecture such as elastin fiber fragmentation and amorphous matrix accumulation: worsen
Fbn1^C1039G/+ mice [3]; glucosamine in drinking water (5%), compared with control Fbn1^C1039G/+ mice
  aortic diameter: increased

## O=C(COc1ccc(Cl)cc1)N[C@H]1CC[C@H](NC(=O)COc2ccc(Cl)cc2)CC1 [ISRIB]
shFbn1-VSMCs [4]
  Atf4, Atf6 mRNA levels: reduces
Fbn1^C1039G/+ mice [5]
  aortic diameter: decreases
  blood pressure: decreases
